In paper PMC11148772, “Inhibition of protein translational machinery in triple-negative breast cancer as a promising therapeutic strategy” (Cell Reports Medicine, 2024):
Residues, ends and D or L forms follow the SMILES beside them. *: point of attachment. Cbz = O=C(OCc1ccccc1)*

How the values were obtained:
YB-1 [1] = target: T1, YB-1 (Homo sapiens, UniProt P67809); assay: Pulldown assay with biotinylated SU056, MDA-MB-231; assay type: binding; parameters: endogenous in cells; host or cells: MDA-MB-231; conditions: 2 μM, 2 h
Description: (§1) Protein pulldown assay was performed using biotinylated SU056. MDA-MB-231 and MDA-MB-468 cells were treated with 2 μM biotinylated SU056 for 2 h. After 2 h of treatment, cells were collected and lysed using M-PER lysis solution (Thermo Scientific, #78503), supplemented with Halt protease and phosphatase inhibitor cocktail (Thermo Scientific, #78440). Protein lysate from Biotinylated SU056 treated cells were treated with RNase (10 μg/mL) for 15 min at 37°C. 600 μg protein was incubated with magnetic conjugate streptavidin bead (CST, #5947) at room temperature on rocker for 30 min. Biotin-streptavidin conjugates were pulled down and washed using a magnetic rack. After three washes, beads were resuspended in 2X SDS sample buffer followed by heating at 90°C–100°C for 5 min. Samples were resolved and probed with anti-YB-1 and anti-RPL11 antibodies as described in immunoblotting. Samples of protein lysates from MDA-MB-231 and MDA-MB-468 without biotinylated SU056 (input), samples from pulldown using only biotin and only streptavidin beads were used as experimental controls.

YB-1 [2] = target: T1, YB-1; assay: Pulldown assay with biotinylated SU056, MDA-MB-468; assay type: binding; parameters: endogenous in cells; conditions: 2 μM, 2 h
Description: as §1

[3] = test system: TNBC cells (MDA-MB-231, MDA-MB-468, SUM159); assay: Immunoblot assay of cell lysates; assay type: cell-based, human; conditions: MG132 10 μM + SU056 1 μM, 15 h, MDA-MB-231 and MDA-MB-468

SMILES	interaction with YB-1 (pull-down) (YB-1 [1])	increase of interaction with YB-1 in RNase-treated protein lysates (YB-1 [1]; RNase 10 μg/mL)	interaction with YB-1 (pull-down) (YB-1 [2])	increase of interaction with YB-1 in RNase-treated protein lysates (YB-1 [2]; RNase 10 μg/mL)	effect on SU056-induced decrease in levels of YB-1 and RPL11 [3]
O=C(CCCC[C@@H]1SC[C@@H]2NC(=O)N[C@@H]21)NCCSSCCC(=O)OCCN1C2=C(C(=O)OC2)C(c2cccc(F)c2)c2cc3c(cc21)OCO3 (stereo partly drawn) [biotinylated SU056, 2-(9-(3-fluorophenyl)-8-oxo-6,9-dihydro-[1,3]dioxolo[4,5-g]furo[3,4-b]quinolin-5(8H)-yl)ethyl 3-((2-(5-((3aS,4S,6aR)-2-oxohexahydro-1H-thieno[3,4-day]imidazol-4-yl)pentanamido)ethyl)disulfaneyl)propanoate]	physically interacts	3.13 fold	physically interacts	18.76 fold	–
CC(C)C[C@@H](C=O)NC(=O)[C@H](CC(C)C)NC(=O)[C@H](CC(C)C)NC(=O)OCc1ccccc1 [MG132, reference compound] (Cbz-Leu-Leu-Leu-aldehyde)	–	–	–	–	partially reversed
